# Values joined by “and” are separate entries in the source; they are usually repeats but may differ in a detail not shown here. Identical values can stand only once.
# Test system: P. falciparum 3D7 growth, pLDH absorbance
# Experiment: P. falciparum 3D7 growth inhibition, dose response, strain 3D7 (AID 2305)
row,Compound,IC50
1,CN(C)c1ccc(CN2CCC(NC(=O)c3ccc(-c4cccc(Cl)c4)s3)CC2)cc1,920 nM
2,COc1cc(CCNC(=O)Cc2ccc3ccccc3c2)ccc1OCc1ccccc1,1020 nM
3,CCOC(=O)CCCN1C(=O)CN=C(c2ccccc2)c2cc(Cl)ccc21,780 nM
4,COc1ccc(CN2CCC(CNCCc3c(Cl)cccc3Cl)CC2)cc1,430 nM
5,CN(C)CCC1CCCc2ccc(NC(=O)Nc3ccc(-c4ccncc4)c4ccccc34)cc21 (configuration not stated),1070 nM
6,O=C(Nc1cccc(-c2nn3ccccc3c2-c2ccnc(Nc3cccc(F)c3)n2)c1)c1c(F)ccc(F)c1Cl,1140 nM
7,O=c1cc(NCCCNCc2cn(S(=O)(=O)c3ccccc3)c3ccccc23)[nH]c2ccccc12,880 nM
8,Cc1[nH]c(C)c(-c2ccc(OCc3ccc(OC(F)(F)F)cc3)nc2)c(=O)c1Cl,70 nM
9,Cc1ccc(CNC(=O)c2cc3c(=O)n4cccc(C)c4nc3n(CCN3CCOCC3)c2=N)cc1,850 nM
10,Cc1[nH]c(C)c(-c2ccc(CCc3cccc(C(F)(F)F)c3)nc2)c(=O)c1Cl,100 nM
11,O=C(Nc1ccc(N2CCCN(Cc3cccc(F)c3)CC2)cc1)c1ccccc1,960 nM
12,CN1CCN(c2cc3c(Nc4ccc5c(cnn5Cc5ccccc5)c4)ncnc3cn2)CC1,1130 nM
13,CCOc1ccc2c(c1)OC(c1ccccc1)(C(F)(F)F)NC2=O (configuration not stated),170 nM
14,Cc1ccc(C(c2nnnn2C2CCCC2)N(Cc2ccco2)Cc2ccccc2Cl)cc1 (configuration not stated),960 nM
15,CC(c1cccc(S(=O)(=O)NCc2cccc(C(F)(F)F)c2)c1)N1CCC(N2CCCCC2)CC1 (configuration not stated),690 nM
16,CC(C)Sc1nc2c(c(=O)n1CCc1ccccc1)C1(CCCCC1)Cc1ccccc1-2,1870 nM
17,CN(C)CCOc1ccc2c(c1)CN(C)CC2c1ccccc1 (configuration not stated),1110 nM
18,Cc1ccc(F)c(OC2CCN(c3ccc(C(=O)NC4CC4)cn3)CC2)c1,820 nM
19,CS(=O)(=O)c1ccc(CCNCc2ccc(-c3ccc(CNC4Cc5ccccc5C4)cc3)nc2)cc1,760 nM
20,COCn1ccc2c3c(N)nc(N)nc3ccc21,990 nM
21,COc1ccccc1CNC(=O)c1ccc(N2CCN(c3ccncc3)CC2)cn1,1360 nM
22,C[C@H](NC(=O)c1c(CN2CCC(NC(=O)CC(C)(C)C)CC2)c(-c2cccs2)nc2ccccc12)C1CCCCC1,950 nM
23,O=C(NOCCCCOc1ccc(Cl)c(Cl)c1)c1ccccc1,180 nM
24,Cc1[nH]c2ccccc2c1C1CCN(CC2CCC(NC(=O)/C=C/c3ccc(Cl)c(Cl)c3)CC2)CC1 (configuration not stated),820 nM
25,COc1cc(C(=O)NC2CCN(Cc3ccccc3)CC2)ccc1-c1nc2c(Cl)cc(C(F)(F)F)cc2[nH]1,670 nM

row,Compound,IC50
1,CC12CCC(=O)N1C(C(=O)Nc1cccc(C(=O)Nc3cccc(C(F)(F)F)c3)c1)CS2 (configuration not stated),360 nM
2,CCCN1CCN(CC(O)CNC(=O)Nc2ccc(Br)cc2)CC1 (configuration not stated),60 nM
3,CCN(CC)CCON=Cc1cc(C)c2[nH]c3ccc(OCc4ccccc4)cc3c2c1C,970 nM
4,COc1cc(CNCCCCCCNCc2cc(OC)cc3ccccc23)c2ccccc2c1,590 nM
5,Nc1nc(N)c2cc3ccc(OCc4ccccc4)cc3nc2n1,320 nM
6,COc1cccc(-c2cnc(-c3ccncc3)nc2C2CCN(Cc3ccc(NC(C)=O)cc3)CC2)c1,1500 nM
7,COc1cc(Nc2nccc(N3CCC(NC(=O)c4cccc(NC(C)=O)c4)C3)n2)cc(OC)c1OC (configuration not stated),830 nM
8,CCc1c(CCNCCCCCCNCCc2ccc([N+](=O)[O-])cc2)ccc(O)c1O,780 nM
9,CS(=O)(=O)c1ccc(CNCc2cccc(-c3ccc(-c4nc5ccc(C(F)(F)F)cc5[nH]4)cc3)c2)cc1,510 nM
10,COc1cccc(CC(=O)NC2CCN(c3ccnc4cc(Cl)ccc34)C2)c1 (configuration not stated),700 nM
11,O=C(O)C[C@H](NC(=O)CCCNC(=O)c1cccc(-c2ccc(Cl)c(Cl)c2)c1)C(=O)O,880 nM
12,CO/C(=C\C=C\c1cc2cc(Cl)c(Cl)cc2[nH]1)C(=O)NC1CCN(CCCc2ccccc2)CC1,770 nM
13,CN(c1ccccc1C(=O)Nc1ccccc1Oc1ccccc1)S(=O)(=O)c1ccccc1,1150 nM
14,COc1cc2nc(N3CCC(CNC(=O)c4ccc(-c5ccc(C(=O)N(C)C)cc5)cc4)CC3)nc(N)c2cc1OC,750 nM
15,CC(CN(C)C)C(=O)Nc1ccc(-c2csc(-c3nc4ccccc4[nH]3)c2)cc1 (configuration not stated),1320 nM
16,Cc1ccccc1N1CCN(c2ncc(C(=O)NC3CC3)cc2Cl)CC1,630 nM
17,CC(C)CNC(=S)N1CCCN(c2nc3ccc(Cl)cc3s2)CC1,960 nM
18,CN(C)c1cccc(CN2CC=C(c3c[nH]c4ccc(Cl)cc34)CC2)c1,660 nM
19,COc1ccc(Cn2c(Nc3cccc(C(F)(F)F)c3)nc3cc(C(=O)NC4CC4)cnc32)cc1Cl,730 nM
20,CN(c1cc(NC(=O)c2ccc(F)cc2)ccn1)C1CCN(Cc2ccc(C#N)cc2)CC1,1510 nM
21,Cc1cccc2[nH]c(-c3cccc(-c4cccc(NC(=O)c5cccnc5Cl)c4)c3)nc12,710 nM
22,COc1ccc2[nH]c(C(=O)Nc3ccc4nc(-c5ccccc5)[nH]c4c3)cc2c1,830 nM
23,Oc1ccc(-c2nc(-c3ccc4oc5ccc(-c6[nH]c(-c7ccc(O)cc7)nc6-c6ccccc6)cc5c4c3)c(-c3ccccc3)[nH]2)cc1,1110 nM
24,O=C(Nc1cccc(F)c1)c1ccc(C(=O)NC2CCN(CC3CCCCC3)C2)cc1 (configuration not stated),930 nM
25,CC(C)CNC(=O)c1cncc(-c2ccc(CNCCCc3ccccc3)cc2)c1,770 nM

row,Compound,IC50
1,CCn1c(C=Cc2cc(Br)ccc2O)nc2ccccc2c1=O,650 nM
2,CN(C)c1cccc(NC(=O)N[C@H]2N=C(c3ccccc3)c3ccccc3N(CC(=O)N3CCCC3)C2=O)c1,250 nM
3,NCc1cccc(-c2cccc(CN(C(=O)Nc3ccccc3)C3CCN(Cc4ccccc4)CC3)c2)c1,830 nM
4,CC1CC(NCCCNc2cc(=O)c3ccccc3[nH]2)c2c(Cl)c(Cl)cc(Cl)c21 (configuration not stated),980 nM
5,CC(C)C(=O)NC(c1ccc(Cl)cc1)c1ccc2cccnc2c1O (configuration not stated),870 nM
6,Cc1ccc(Nc2nc(-c3ccccn3)cs2)nc1,750 nM
7,COc1cccc(-c2cccc(NC(=O)C3CCN(Cc4ccc(O)cc4)CC3)c2)c1,1030 nM
8,COC(=O)c1ccc(CN2CCC(N(Cc3cccc(Oc4ccccc4)c3)S(=O)(=O)c3ccc(NC(C)=O)cc3)CC2)cc1,1050 nM
9,CN(C(=O)C(C)(C)Oc1ccc(Cl)cc1)C1CCN(CCCCCNC(=O)/C=C/c2ccc(Cl)c(Cl)c2)CC1,920 nM
10,CCN1CCC(N(Cc2ccc(-c3ccc(C(F)(F)F)cc3)cc2)C(=O)CCCCn2c(CCc3cccc(F)c3F)nc(=O)c3ccccc32)CC1,990 nM
11,O=C(c1cccc(-c2noc(C(F)(F)F)n2)c1)N1CCN(C(=O)c2ccc3cc[nH]c3c2)CC1,110 nM
12,C=C[C@H]1CN2CC[C@H]1C[C@H]2[C@H](O)c1ccnc2ccc(OC)cc12,100 nM and 430 nM and 150 nM
13,Cc1cc(Nc2ccc3ccccc3c2)n2ncnc2n1,170 nM
14,Oc1cccc(-c2nc3ccc(C4=N[C@@H]5CCCC[C@H]5N4)cc3[nH]2)c1,530 nM
15,COc1cc(NCC(CN)Cc2ccc3c(c2)OCO3)nc2ccccc12 (configuration not stated),820 nM
16,CCOc1cc(C(=O)NC2CC(C)(C)NC(C)(C)C2)ccc1-c1nc2ccc(Cl)cc2[nH]1,990 nM
17,COc1cc(Cc2cnc(N)nc2N)c2c(c1OC)OC(C)C=C2 (configuration not stated),1250 nM
18,O=C(/C=C/c1ccc(Cl)c(Cl)c1)N1CCC(CCCN2CCC(c3c[nH]c4ccc(O)cc34)CC2)CC1,690 nM
19,O=C(Cn1c(SCc2cccc(F)c2F)cc(=O)c2ccccc21)N(CCN1CCCCC1)Cc1ccc(-c2ccc(C(F)(F)F)cc2)cc1,660 nM
20,CCCCCCOc1ccc(C(=O)NCCCC2CCCN(CCCCCNC(=O)C=Cc3ccc(Cl)c(Cl)c3)C2)cc1 (configuration not stated),700 nM
21,CS(=O)(=O)NCCCNCc1cccc(-c2csc(-c3nc4ccccc4[nH]3)c2)c1,1010 nM
22,COc1ccc2nc(C)cc(NN=Cc3ccc([N+](=O)[O-])cc3)c2c1,690 nM
23,COc1cc2nc(NCCC(C)C)n3nc(-c4ccccc4)nc3c2cc1OC,420 nM
24,COc1ccc(CNC2CCN(C)CC2)cc1-c1ccc(S(=O)(=O)NCc2ccccc2)c(C)c1,990 nM
25,Cc1ccccc1C1CCN(C2CCC(NC(=O)/C=C/c3ccccc3C(F)(F)F)CC2)CC1 (configuration not stated),1410 nM

row,Compound,IC50
1,CC(CN1CCN(C)CC1)C(=O)Nc1cccc(-c2ccc(-c3nc4ccc(F)cc4[nH]3)cc2)c1 (configuration not stated),810 nM
2,C=CCN(C(=O)c1ccc(Cl)c([N+](=O)[O-])c1)c1nc(-c2ccccc2)cs1,400 nM
3,COc1c(C2=CCN(CCCCNC(=O)c3ccc(-c4ccc(C#N)cc4)cc3)CC2)ccc2c1CCCC2,910 nM
4,CC1CCN(c2nc(C(=O)Nc3ccc(F)cc3C(F)(F)F)c(C(C)C)s2)CC1,230 nM
5,CC1(C)[C@H]2CC[C@@H](CNc3nc(NCCc4cnc[nH]4)nc(Nc4ccc5c(c4)OCO5)n3)[C@@H]1C2,540 nM
6,Cc1cnn(-c2cccc(C(=O)NC3CCC(CCN4CCc5ccc(C#N)cc5CC4)CC3)c2)c1 (configuration not stated),930 nM
7,CN(Cc1ccccc1)C1CCN(c2cc(NC(=O)c3cccc(F)c3)ccn2)CC1,1510 nM
8,OC(c1cc(C(F)(F)F)nc2c(F)cccc12)C1CCCCN1 (configuration not stated),780 nM
9,COCCNc1nc(N2CCC(CNC(=O)c3ccc(-c4ccc(C(=O)N(C)C)cc4C)cc3)CC2)nc2cc(OC)c(OC)cc12,1020 nM
10,Cc1ccccc1C1CCN(C2CCC(NC(=O)c3cncc(-c4ccccc4)c3)CC2)CC1 (configuration not stated),930 nM
11,NCc1ccc(-c2ccccc2CN(C(=O)Nc2ccccc2)C2CCN(Cc3ccccc3)CC2)cc1,880 nM
12,COc1ccc(Nc2nccc(N3CCC(NC(=O)c4cccc(NC(C)=O)c4)C3)n2)cc1 (configuration not stated),990 nM
13,Cc1cc(N2CCCC2)nc(Nc2ccc(NC(=O)COc3ccccc3)cc2)n1,650 nM
14,Cc1cccc2[nH]c(-c3ccc(-c4ccc(CN5CCN(c6ccncc6)CC5)cc4)s3)nc12,110 nM
15,COc1ccc(CN2CCCN(Cc3cccc(NC(=O)c4ccc(-c5ccccc5)cc4)c3)CC2)cc1,940 nM
16,COc1ccc(/C=C/C(=O)NCCCCCN2CCC(c3c[nH]c4ccccc34)CC2)cc1O,960 nM
17,Oc1cccc(-c2nc(-c3ccccc3)c(-c3ccc(Oc4ccc(-c5[nH]c(-c6cccc(O)c6)nc5-c5ccccc5)cc4)cc3)[nH]2)c1,860 nM
18,CNCCNCc1cccc(-c2ccc(-c3nc4c(C)cccc4[nH]3)cc2)c1,800 nM
19,O=C(Nc1ccc(N2CCN(Cc3ccccc3)CC2)cc1)c1cccs1,770 nM
20,COc1ccc2nc(Nc3nc4ccncc4[nH]3)sc2c1,1130 nM
21,O=C(Cc1ccccc1)NC(c1ccccc1)c1ccc2cccnc2c1O (configuration not stated),950 nM
22,O=C(NCCCCN1CCC(c2ccc(Br)cc2)CC1)c1ccc(NC(=O)c2ccc(Cl)cc2)cc1,710 nM

# From PubChem BioAssay AID2305 (GlaxoSmithKline (GSK), 2010)
